Laboratory results published in US6576430B1, “Detection of ligands by refractive surface methods” (Becton, Dickinson and Company, priority 2000, dated 2003).

What was measured:
[1] = biological target: T1, Tissue transglutaminase (tTG) (Cavia cutleri, UniProt P08587); assay: SPR (BIACORE) detection of calcium binding to immobilized tissue transglutaminase
T1 construct: purchased Sigma
T1 sequence (P08587 1-690): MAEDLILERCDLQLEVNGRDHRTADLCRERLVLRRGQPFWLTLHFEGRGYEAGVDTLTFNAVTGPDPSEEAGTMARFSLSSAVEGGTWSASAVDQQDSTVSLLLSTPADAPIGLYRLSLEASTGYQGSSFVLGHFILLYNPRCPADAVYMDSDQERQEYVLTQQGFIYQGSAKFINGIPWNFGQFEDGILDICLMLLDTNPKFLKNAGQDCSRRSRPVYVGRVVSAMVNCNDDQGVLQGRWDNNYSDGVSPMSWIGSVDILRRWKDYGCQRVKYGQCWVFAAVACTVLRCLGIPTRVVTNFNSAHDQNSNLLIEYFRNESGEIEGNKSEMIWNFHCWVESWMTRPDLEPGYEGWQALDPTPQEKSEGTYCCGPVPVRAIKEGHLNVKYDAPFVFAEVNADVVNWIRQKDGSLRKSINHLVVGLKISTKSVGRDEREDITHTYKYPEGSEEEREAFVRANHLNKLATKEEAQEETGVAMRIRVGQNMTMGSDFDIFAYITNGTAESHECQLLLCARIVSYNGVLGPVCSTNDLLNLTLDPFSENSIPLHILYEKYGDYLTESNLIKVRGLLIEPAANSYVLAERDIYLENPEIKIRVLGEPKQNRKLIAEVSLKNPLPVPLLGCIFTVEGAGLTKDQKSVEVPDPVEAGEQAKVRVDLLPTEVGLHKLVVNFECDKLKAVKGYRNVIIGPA
Procedure: Tissue transglutaminase (tTG) was obtained from Sigma and prepared at 1.3 mg/mL at pH 4.5 in 10 mM NaOAc. A surface bearing 2500 RU of tTG was prepared using standard EDC/NHS coupling chemistry and was used for all experiments. Ethanolamine (1.0 M, pH 8.0) was used to quench unreacted esters. Calcium chloride was prepared in dH2O at the desired concentrations. Injections were 20 μL at a flow rate of 10 μL/min (2 minute contact time). Report points were collected at 100 seconds post injection. Report points from injections over a blank surface were subtracted. Typical injections over the blank control surface gave minimal (<5 RU) signals, but were subtracted nonetheless. Injections were randomized relative to concentration. Data points were discarded for data collected during obvious anomalies, such as air bubbles. Running buffer was HBS-EP (BIACORE) without calcium supplementation. Calcium was removed from transglutaminase by injection of 5 mM EDTA pH 8.0. After EDTA injection the surface was allowed to stabilize for 300 seconds before additional calcium injections.

[2] = biological target: T2, Bovine brain calmodulin (CaM) (Bos taurus, UniProt P62157); assay: SPR (BIACORE) detection of calcium binding to immobilized calmodulin
T2 construct: Bovine brain calmodulin (CaM) was obtained from Calbiochem; purchased Calbiochem; host or cells: bovine brain
Procedure: Bovine brain calmodulin (CaM) was obtained from Calbiochem and immobilized onto carboxymethyl dextran gold surfaces using standard BIACORE EDC/NHS coupling chemistry. HBS-EP was used as an eluent. CaM was injected at 0.5 mg/mL in 10 mM sodium acetate, pH 4.0 (54 minute injection). This procedure immobilized approximately 480 RU of calmodulin. During the immobilizations, the flow rate was 5 μL/min. For some experiments, the BIACORE™ 3000 was used. For others, a BIACORE™ Upgrade was used. In general, injections were run at a flow rate of 5 or 10 μL/min, in HBP-EP buffer. Varying concentrations of CaCl2 in HBS-EP (3.5-50 mM) were injected on the CaM and blank surfaces.

tTG = biological target: T3, tTG (Homo sapiens, UniProt P21980); details: reported value; read-out: reported Kd of calcium for the protein; cited from earlier work
T3 sequence (P21980 1-687): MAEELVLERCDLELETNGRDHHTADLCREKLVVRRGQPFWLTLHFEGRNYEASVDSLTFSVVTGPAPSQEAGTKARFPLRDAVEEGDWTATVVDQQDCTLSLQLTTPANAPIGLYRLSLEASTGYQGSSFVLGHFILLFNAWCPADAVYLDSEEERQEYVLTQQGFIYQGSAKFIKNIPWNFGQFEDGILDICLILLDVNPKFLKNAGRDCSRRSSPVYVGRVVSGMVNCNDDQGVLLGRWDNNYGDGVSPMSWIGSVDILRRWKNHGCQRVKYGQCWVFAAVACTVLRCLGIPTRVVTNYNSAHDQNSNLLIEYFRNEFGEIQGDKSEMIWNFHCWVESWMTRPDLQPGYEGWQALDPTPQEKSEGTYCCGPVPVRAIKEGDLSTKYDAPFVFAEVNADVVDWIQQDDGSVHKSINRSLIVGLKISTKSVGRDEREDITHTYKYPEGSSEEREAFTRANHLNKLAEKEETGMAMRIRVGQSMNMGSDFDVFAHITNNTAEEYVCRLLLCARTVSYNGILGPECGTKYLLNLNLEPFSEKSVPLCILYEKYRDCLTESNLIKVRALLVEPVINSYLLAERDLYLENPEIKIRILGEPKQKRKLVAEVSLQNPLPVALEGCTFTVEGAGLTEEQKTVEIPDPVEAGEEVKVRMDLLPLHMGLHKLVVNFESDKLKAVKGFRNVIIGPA

[3] = biological target: T4, Glucose/Galactose Binding Protein (GGBP) (Escherichia coli, UniProt P0AEE5); assay: SPR (BIACORE) response of saccharides injected over immobilized GGBP surface; details: surface bearing 2000 RU of GGBP; blank subtracted
T4 construct: made in house
Procedure: Glucose/Galactose Binding Protein (GGBP) was prepared from osmotic shock lysates and coupled to the CM5 chip surface at 20 μM at pH 4.5 in 10 mM NaOAc using standard NHS/EDC procedures. Ethanolamine (1.0 M, pH 8.0) was used to quench unreacted esters and was also found to be effective at removing non-covalently adsorbed protein from the chip surface. Buffer flow was maintained overnight to remove additional non-covalently bound GGBP from the surface before ligand injections were performed. A surface bearing 2000 RU of GGBP was used for experiments. Ligands were prepared in dH2O at the desired concentrations. Injections were 20 μL at a flow rate of 10 μL/min (2 minute contact time). Report points were collected at 100 seconds post injection. Report points from injections over a blank surface were subtracted. Typical injections over the blank control surface gave minimal (<5 RU) signals, but were subtracted nonetheless. Ligand injections were repeated 3-5 times and the order of injection was reversed periodically. Data points were discarded for data collected during obvious anomolies, such as air bubbles. Remaining data was subjected to Q tests and error represents single standard deviations. A single set of sugar solutions was used for injection over the control and test surfaces. Running buffer was HBS-EP (BIACORE) supplemented with 5 mM CaCl2. Bound GGBP ligands were removed either by injection of 100 mM α-methyl mannoside in 10 mM NaOAc pH 4.5 or by 500-1000 seconds of running buffer wash.

MBP = biological target: T5, MBP (Escherichia coli, UniProt P0AEX9); assay: SPR (BIACORE) detection of maltose binding to immobilized MBP
T5 construct: made in house
Procedure: MBP was prepared from osmotic shock lysates and coupled to a CM5 (carboxymethyl dextran) chip (BIACORE) using standard EDC/NHS procedures performed with reagents from the BIACORE EDC/NHS coupling kit. MBP was 10 μM at pH 4.5 in 10 mM NaOAc. Hepes Buffered Saline-EP (HBS-EP: 0.01 M HEPES pH 7.4, 0.15 M NaCl, 3 mM EDTA, 0.005% surfactant P20; BIACORE™ AB) was used as an eluent (O'Shannessy et al., 1992) supplemented with 5 mM CaCl2. Ethanolamine (1.0 M, pH 8.0) was used to quench unreacted esters and was also found to be effective at removing non-covalently adsorbed protein from the chip surface. […] Report points were collected at 100 seconds post injection. Report points from injections over a blank surface were subtracted. Data points were discarded for data collected during obvious anomalies, such as air bubbles. Running buffer was HBS-EPA (BIACORE) supplemented with 5 mM CaCl2.
After regeneration the surface was allowed to stabilize for 300 seconds before additional ligand injections.

T4 sequence (P0AEE5 24-332 limits assumed): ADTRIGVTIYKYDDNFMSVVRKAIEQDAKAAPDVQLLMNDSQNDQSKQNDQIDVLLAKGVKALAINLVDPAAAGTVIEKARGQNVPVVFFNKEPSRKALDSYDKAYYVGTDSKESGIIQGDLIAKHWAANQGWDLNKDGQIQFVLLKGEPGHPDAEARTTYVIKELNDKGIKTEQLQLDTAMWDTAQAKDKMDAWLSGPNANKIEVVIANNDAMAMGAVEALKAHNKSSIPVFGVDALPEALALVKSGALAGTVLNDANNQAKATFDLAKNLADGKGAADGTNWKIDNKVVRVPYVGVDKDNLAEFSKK

## [Ca+2].[Cl-].[Cl-] [calcium, Calcium chloride]
[1]; SPR, immobilized tTG
  change in SPR response on calcium binding to tTG: positive change in response
[1]; surface bearing 2500 RU of tTG, running buffer without calcium, read-out: half-maximal response of tTG
  EC50: 500 µM
[2]; 50 mM CaCl2, blank surface gave 1502 RU
  signal over the CaM surface during injection: 1350 RU
[2]; 3.5-50 mM CaCl2 in HBS-EP, approximately 480 RU of calmodulin
  change in SPR signal on CaM surface relative to blank surface: reduction in signal
tTG
  Kd: ~1000 µM

## maltotriose
[3]
  response in relative RU on injection over the GGBP surface: negligible or slightly positive increase in relative RU

## OC[C@H]1O[C@H](O[C@H]2[C@H](O)[C@@H](O)[C@@H](O[C@H]3[C@H](O)[C@@H](O)[C@@H](O[C@H]4[C@H](O)[C@@H](O)C(O)O[C@@H]4CO)O[C@@H]3CO)O[C@@H]2CO)[C@H](O)[C@@H](O)[C@@H]1O (stereo partly drawn) [maltotetraose]
[3]
  response in relative RU on injection over the GGBP surface: negligible or slightly positive increase in relative RU

## OC[C@H]1O[C@H](O[C@H]2[C@H](O)[C@@H](O)C(O)O[C@@H]2CO)[C@H](O)[C@@H](O)[C@@H]1O (mixture of isomers) [maltose]
MBP
  change in RUs on injection over the MBP surface: reproducible net decrease in RUs

## cyclodextrins
[3]
  response in relative RU on injection over the GGBP surface: negligible or slightly positive increase in relative RU
